Reference: patent publication US20250084026A1, “NOVEL SALT OF 1-SULFONYL PYRROLE DERIVATIVE, PREPARATION METHOD THEREOF AND PHARMACEUTICAL COMPOSITION COMPRISING THEREOF” (ILDONG PHARMACEUTICAL CO., LTD., priority 2021, published 2025)
In brackets after ≈: the same amount, converted by molar mass. Like-named read-outs stand apart in the source and are kept apart here. Each block holds one compound with its values, some of them ahead of it.

How the values were obtained:
Type in all cases: physicochemical
[1] = Solubility in bio-relevant media (water, SGF, FaSSIF, FeSSIF), HPLC; conditions: for solubility at 1 h / solubility at 24 h: thermodynamic from solid; for solubility at 1 h: read-out: Solubility-1 h concentration; for solubility at 24 h: read-out: Solubility-24 h concentration
Procedure: Solubility in bio-relevant media, i.e., stimulated gastric fluid (SGF), fasted state simulated intestinal fluid (FaSSIF), and fed state simulated intestinal fluid (FeSSIF) of the free base and the fumarate salt of 1-(5-(2-fluorophenyl)-4-methoxy-1-((6-methoxypyridin-3-yl) sulfonyl)-1H-pyrrole-3-yl)-N-methylmethanamine that was confirmed through the salt screening analysis result, was confirmed.
Buffers for the bio-relevant media were prepared as follows. • Water: Laboratory Milli-Q purified water. • SGF (Stimulated Gastric Fluid): 2.0 g of sodium chloride and 7 mL of hydrochloric acid dissolved in 1000 ml of water was used. • FaSSIF (Fasted State Simulated Intestinal Fluid): A commercial product purchased from Bio-Relevant Company and manufactured according to instructions was used. • FeSSIF (Fed State Simulated Intestinal Fluid): A commercial product purchased from Bio-Relevant Company and prepared according to instructions was used.
For the experiment, about 10 mg of compound (10 mg as free base form) was weighed into each glass vial and then 1 mL of medium was added (final concentration of 10 mg/mL). Then, the sample was continuously stirred in a magnetic stirrer at 37° C. at a speed of 200 rpm. After stirring for 1 hour and 24 hours, 0.5 mL of the sample solution was transferred to a 1.5 mL centrifuge tube and centrifuged at 12,000 rpm for 5 minutes. The supernatant was diluted with suitable methanol and analyzed by HPLC.
The free base was selected as a standard sample to quantify the solubility, and about 10 mg of the free base was weighed into a 25 mL flask and dissolved in methanol to the curve.
The residue of the compound in water was tested by XRPD to determine the solid state.

[2] = Drug stability under stress condition, 60° C. open, XRPD and HPLC; conditions: for HPLC peak RT 7.423 min, RRT 0.74 / HPLC peak RT 10.063 min, RRT 1.00 / HPLC peak RT 10.277 min, RRT 1.02: in %; for Stability under harsh conditions (in words): up to Week 2
Procedure: 10 mg and 40 mg of the free base and the fumaric acid salt of 1-(5-(2-fluorophenyl)-4-methoxy-1-((6-methoxypyridin-3-yl) sulfonyl)-1H-pyrrol-3-yl)-N-methylmethanamine were weighed into each vial and stored under stress conditions to investigate stability.
The stress conditions are as follows: • high temperature open room condition: 60° C.; • The bottle neck of the vial was wrapped with aluminum foil with pinholes to avoid contamination, and the samples were analyzed by XRPD and HPLC at the onset (Day 0), week 1 and week 2.

[3] = Drug stability at 40° C., 75% RH for 8 weeks (XRPD, TGA, HPLC)
Procedure: In order to confirm the stability of the fumarate salt of 1-(5-(2-fluorophenyl)-4-methoxy-1-((6-methoxypyridin-3-yl) sulfonyl)-1H-pyrrole-3-yl)-N-methylmethanamine prepared under an isopropyl alcohol solvent, water sorption and/or hydrate formation were confirmed under conditions of 75% RH at 40° C. for 8 weeks.
To proceed with the experiment, 100 mg of the fumarate salt of 1-(5-(2-fluorophenyl)-4-methoxy-1-((6-methoxypyridin-3-yl) sulfonyl)-1H-pyrrole-3-yl)-N-methylmethanamine was put in a vial with a wide mouth (Experimental group 1), and the other sample was put in a vial that is double-packed with a polyethylene bag (Experimental group 2). Then, both samples were placed inside a 40° C., 75% RH chamber and monitored at 2-week intervals.
The XRPD values were checked every two weeks to identify whether or not there was a change in the crystalline form, and the results are shown in Table 11.

[4] = Thermal gravimetric analysis (TGA) weight loss
Procedure: Using Pyris 1 TGA manufactured by PerkinElmer, Inc., a compound sample (about 5 mg) was weighed in pans under nitrogen purge at a ramp rate of 20° C./min over the range of 30 to 300° C.

[5] = Dynamic vapor sorption (DVS) hygroscopicity; conditions: 25° C., 0%~95%~0% RH cycle; compared to the known hygroscopicity evaluation standard
Procedure: Using DVS intrinsic manufactured by Surface Measurement Systems Ltd, about 20 mg of the sample was tested for water sorption/desorption profiles at 25° C. under a 0%˜95%˜0% relative humidity (RH) cycle using the following parameters.
Equilibrium: dm/dt: 0.01%/min.
Range of RH (%) measurement step: 0%˜95%˜0%; RH (%) measurement step: 5%

[6] = Week 2, 4, 6 and 8, Experimental groups 1 and 2

Solubility-24 h concentration ([1]; water, 37° C., 24 h): 8630 µg/mL (≈ 21.3 mM)
% Impurities ([2]; 60° C., Week 1): 20.94%
Assay % ([2]; 60° C., Week 1): 67.44%
Crystalline form (XRPD) ([2]; 60° C., Week 1): Melted
HPLC peak RT 6.797 min, RRT 0.68 ([2]; 60° C., Week 1): 0.43%
HPLC peak RT 7.563 min, RRT 0.75 ([2]; 60° C., Week 1): 1%
HPLC peak RT 9.327 min, RRT 0.93 ([2]; 60° C., Week 1): 0.18%
HPLC peak RT 10.813 min, RRT 1.07 ([2]; 60° C., Week 1): 0.57%
HPLC peak RT 7.423 min, RRT 0.74 ([2]; 60° C., Week 1): 18.86
HPLC peak RT 10.063 min, RRT 1.00 ([2]; 60° C., Week 1): 79.06
HPLC peak RT 10.277 min, RRT 1.02 ([2]; 60° C., Week 1): 9.95
% Impurities ([2]; 60° C., Week 2): 35.00%
Assay % ([2]; 60° C., Week 2): 60.29%
Crystalline form (XRPD) ([2]; 60° C., Week 2): Melted
HPLC peak RT 6.797 min, RRT 0.68 ([2]; 60° C., Week 2): 0.31%
HPLC peak RT 7.563 min, RRT 0.75 ([2]; 60° C., Week 2): 4.12%
HPLC peak RT 9.327 min, RRT 0.93 ([2]; 60° C., Week 2): 0.14%
HPLC peak RT 10.813 min, RRT 1.07 ([2]; 60° C., Week 2): 0.53%
HPLC peak RT 7.423 min, RRT 0.74 ([2]; 60° C., Week 2): 13.51
HPLC peak RT 10.063 min, RRT 1.00 ([2]; 60° C., Week 2): 65.0
HPLC peak RT 10.277 min, RRT 1.02 ([2]; 60° C., Week 2): 16.38
Stability under harsh conditions (in words) ([2]; 60° C.): high impurity content
% Impurities ([2]; Day 0): 0.85%
Assay % ([2]; Day 0): 100.00%
Crystalline form (XRPD) ([2]; Day 0): Free form
HPLC peak RT 9.327 min, RRT 0.93 ([2]; Day 0): 0.18%
HPLC peak RT 10.813 min, RRT 1.07 ([2]; Day 0): 0.66%
HPLC peak RT 10.063 min, RRT 1.00 ([2]; Day 0): 99.15
SMILES: CNCc1cn(S(=O)(=O)c2ccc(OC)nc2)c(-c2ccccc2F)c1OC [Free base, 1-(5-(2-fluorophenyl)-4-methoxy-1-((6-methoxypyridin-3-yl)sulfonyl)-1H-pyrrol-3-yl)-N-methylmethanamine]

Solubility (in words) ([1]; all of SGF, FaSSIF, and FeSSIF): excellent solubility
Solubility (in words) ([1]; fasted state simulated intestinal fluid (FaSSIF)): very good solubility
solubility at 1 h ([1]; simulated gastric fluid, SGF, 37° C.): > 10000 µg/mL
solubility at 24 h ([1]; simulated gastric fluid, SGF, 37° C., 24 h): > 10000 µg/mL
solubility at 1 h ([1]; FaSSIF, 37° C.): 7910 µg/mL
solubility at 24 h ([1]; FaSSIF, 37° C., 24 h): 7580 µg/mL
solubility at 1 h ([1]; FeSSIF, 37° C.): 4500 µg/mL
solubility at 24 h ([1]; FeSSIF, 37° C., 24 h): 4440 µg/mL
solubility at 1 h ([1]; water, 37° C.): 6390 µg/mL
solubility at 24 h ([1]; water, 37° C., 24 h): 5320 µg/mL
% Impurities ([2]; 60° C., Week 1): 0.76%
Assay % ([2]; 60° C., Week 1): 105.69%
Crystalline form (XRPD) ([2]; 60° C., Week 1): Crystalline
HPLC peak RT 9.327 min, RRT 0.93 ([2]; 60° C., Week 1): 0.17%
HPLC peak RT 10.813 min, RRT 1.07 ([2]; 60° C., Week 1): 0.59%
HPLC peak RT 10.063 min, RRT 1.00 ([2]; 60° C., Week 1): 99.24
% Impurities ([2]; 60° C., Week 2): 0.80%
Assay % ([2]; 60° C., Week 2): 94.74%
Crystalline form (XRPD) ([2]; 60° C., Week 2): Crystalline
HPLC peak RT 9.327 min, RRT 0.93 ([2]; 60° C., Week 2): 0.18%
HPLC peak RT 10.813 min, RRT 1.07 ([2]; 60° C., Week 2): 0.62%
HPLC peak RT 10.063 min, RRT 1.00 ([2]; 60° C., Week 2): 99.20
Stability under harsh conditions (in words) ([2]; 60° C.): excellent stability
% Impurities ([2]; Day 0): 0.77%
Assay % ([2]; Day 0): 100.00%
Crystalline form (XRPD) ([2]; Day 0): Crystalline
HPLC peak RT 9.327 min, RRT 0.93 ([2]; Day 0): 0.17%
HPLC peak RT 10.813 min, RRT 1.07 ([2]; Day 0): 0.6%
HPLC peak RT 10.063 min, RRT 1.00 ([2]; Day 0): 99.23
Polymorphic change vs initial XRPD of crystalline Form I ([3]; 8 weeks): no polymorphic change
Whether or not XRPD value changed ([3]; Experimental group 1 (vial with a wide mouth), Week 2): Same
Whether or not XRPD value changed ([3]; Experimental group 1 (vial with a wide mouth), Week 2 (second line so printed, r7)): Same
Whether or not XRPD value changed ([3]; Experimental group 1 (vial with a wide mouth), Week 6): Same
Whether or not XRPD value changed ([3]; Experimental group 1 (vial with a wide mouth), Week 8): Same
Whether or not XRPD value changed ([3]; Experimental group 2 (vial double-packed with polyethylene bag), Week 2): Same
Whether or not XRPD value changed ([3]; Experimental group 2 (vial double-packed with polyethylene bag), Week 2 (second line so printed, r7)): Same
Whether or not XRPD value changed ([3]; Experimental group 2 (vial double-packed with polyethylene bag), Week 6): Same
Whether or not XRPD value changed ([3]; Experimental group 2 (vial double-packed with polyethylene bag), Week 8): Same
Hygroscopicity (TGA analysis, in words) [3, 6]: significantly low hygroscopicity
Purity (HPLC analysis, in words) [3, 6]: high purity
TGA weight loss (% w/w) ([4]; 120° C., listed as Example 3): ~0.0307%,
Hygroscopicity (DVS, in words) [5]: very low hygroscopicity
SMILES: CNCc1cn(S(=O)(=O)c2ccc(OC)nc2)c(-c2ccccc2F)c1OC.O=C(O)/C=C/C(=O)O [Fumarate salt, fumarate salt of 1-(5-(2-fluorophenyl)-4-methoxy-1-((6-methoxypyridin-3-yl)sulfonyl)-1H-pyrrole-3-yl)-N-methylmethanamine]

Hygroscopicity (from TGA, in words) [4]: high hygroscopicity
TGA weight loss [4]: 1.0189%
SMILES: CNCc1cn(S(=O)(=O)c2ccc(OC)nc2)c(-c2ccccc2F)c1OC.O=P(O)(O)O [phosphate salt, Phosphate Salt of 1-(5-(2-fluorophenyl)-4-methoxy-1-((6-methoxypyridin-3-yl)sulfonyl)-1H-pyrrol-3-yl)-N-methylmethanamine]
